Experiment [1] deals with Sodium-dependent dopamine transporter (Homo sapiens, UniProt Q01959). Description: DRUGMATRIX: Dopamine Transporter radioligand binding (ligand: [125I] RTI-55). The experiment is classed as cell membranes, CHO-K1, Membrane. Particulars: Not Active = under 50% inhibition at 10 µM.
Experiment [2] is described as follows: DRUGMATRIX: Purinergic P2X radioligand binding (ligand: [3H] alpha, beta-Methylene-ATP). Particulars: Not Active = under 50% inhibition at 10 µM. The class given is cell membranes, Oryctolagus cuniculus, New Zealand albino, Urinary bladder, Membrane.
The target of experiment [3] is T1, Angiotensin-converting enzyme (Oryctolagus cuniculus, UniProt P12822).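 Further: enzymatic inhibition of angiotensin-converting enzyme measured with FAPGG as the substrate; in other assays of this panel Not Active means under 50% inhibition at 10 µM.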
T1 sequence (P12822 whole entry): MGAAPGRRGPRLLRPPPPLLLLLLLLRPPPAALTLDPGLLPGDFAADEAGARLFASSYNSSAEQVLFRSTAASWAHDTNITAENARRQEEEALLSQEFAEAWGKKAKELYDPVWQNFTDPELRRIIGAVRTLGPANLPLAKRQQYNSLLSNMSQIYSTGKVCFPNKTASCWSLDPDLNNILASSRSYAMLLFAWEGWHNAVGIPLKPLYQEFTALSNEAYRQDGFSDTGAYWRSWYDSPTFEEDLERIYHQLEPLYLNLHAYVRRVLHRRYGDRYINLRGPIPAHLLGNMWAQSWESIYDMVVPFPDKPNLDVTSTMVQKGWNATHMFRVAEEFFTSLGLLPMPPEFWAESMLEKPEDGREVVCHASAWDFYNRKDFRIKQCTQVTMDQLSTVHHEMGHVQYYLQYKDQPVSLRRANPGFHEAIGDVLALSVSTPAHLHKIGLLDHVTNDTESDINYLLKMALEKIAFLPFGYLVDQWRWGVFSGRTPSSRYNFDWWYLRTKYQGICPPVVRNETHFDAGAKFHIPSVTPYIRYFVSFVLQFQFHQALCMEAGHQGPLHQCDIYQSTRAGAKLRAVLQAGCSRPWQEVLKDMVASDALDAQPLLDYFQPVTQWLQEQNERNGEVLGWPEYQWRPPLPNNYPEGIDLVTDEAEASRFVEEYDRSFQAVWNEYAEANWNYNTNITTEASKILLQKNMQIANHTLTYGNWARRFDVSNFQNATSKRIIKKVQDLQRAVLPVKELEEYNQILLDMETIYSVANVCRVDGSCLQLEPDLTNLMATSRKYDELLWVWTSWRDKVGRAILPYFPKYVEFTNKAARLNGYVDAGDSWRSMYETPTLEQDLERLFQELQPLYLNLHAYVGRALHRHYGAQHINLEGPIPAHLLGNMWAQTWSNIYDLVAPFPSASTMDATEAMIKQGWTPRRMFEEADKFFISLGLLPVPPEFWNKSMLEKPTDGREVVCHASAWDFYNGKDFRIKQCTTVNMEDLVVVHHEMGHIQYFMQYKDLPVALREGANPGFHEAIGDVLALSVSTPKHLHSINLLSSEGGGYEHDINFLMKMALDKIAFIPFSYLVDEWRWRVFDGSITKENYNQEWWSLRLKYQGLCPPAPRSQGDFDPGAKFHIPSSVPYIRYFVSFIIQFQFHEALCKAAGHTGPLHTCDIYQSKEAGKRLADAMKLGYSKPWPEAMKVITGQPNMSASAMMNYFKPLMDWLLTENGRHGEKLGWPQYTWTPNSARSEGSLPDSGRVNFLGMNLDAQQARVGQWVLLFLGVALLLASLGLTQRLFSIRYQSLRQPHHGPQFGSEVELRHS
The experiment is classed as tissue-based, Lung.

Experiment [4] addresses T2, Glucocorticoid receptor (Homo sapiens, UniProt P04150).
T2 sequence (P04150 whole entry): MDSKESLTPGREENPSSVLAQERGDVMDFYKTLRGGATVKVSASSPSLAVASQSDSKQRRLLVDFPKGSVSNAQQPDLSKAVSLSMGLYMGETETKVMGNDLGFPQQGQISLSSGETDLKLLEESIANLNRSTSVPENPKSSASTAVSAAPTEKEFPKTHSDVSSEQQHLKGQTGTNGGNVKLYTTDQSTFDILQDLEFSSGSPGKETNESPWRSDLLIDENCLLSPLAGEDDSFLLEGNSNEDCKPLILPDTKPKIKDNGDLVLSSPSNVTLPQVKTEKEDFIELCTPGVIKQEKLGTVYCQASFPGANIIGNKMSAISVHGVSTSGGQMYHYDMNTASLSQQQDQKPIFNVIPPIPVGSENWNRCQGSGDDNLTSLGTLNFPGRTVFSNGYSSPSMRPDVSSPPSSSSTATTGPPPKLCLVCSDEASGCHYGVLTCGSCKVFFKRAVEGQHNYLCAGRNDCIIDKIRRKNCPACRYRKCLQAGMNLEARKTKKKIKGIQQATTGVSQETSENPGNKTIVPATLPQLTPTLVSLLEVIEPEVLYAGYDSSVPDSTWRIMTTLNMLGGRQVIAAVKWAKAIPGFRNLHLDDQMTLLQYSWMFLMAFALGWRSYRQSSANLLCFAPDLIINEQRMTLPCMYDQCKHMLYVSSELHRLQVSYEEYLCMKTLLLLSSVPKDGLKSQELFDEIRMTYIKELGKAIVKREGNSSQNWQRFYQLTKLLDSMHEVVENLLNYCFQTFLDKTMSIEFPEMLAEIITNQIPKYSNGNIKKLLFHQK
The following applies: hela s3.

Experiment [5] deals with T3, Alpha-1A adrenergic receptor (Rattus norvegicus, UniProt P43140).
T3 sequence (P43140 whole entry): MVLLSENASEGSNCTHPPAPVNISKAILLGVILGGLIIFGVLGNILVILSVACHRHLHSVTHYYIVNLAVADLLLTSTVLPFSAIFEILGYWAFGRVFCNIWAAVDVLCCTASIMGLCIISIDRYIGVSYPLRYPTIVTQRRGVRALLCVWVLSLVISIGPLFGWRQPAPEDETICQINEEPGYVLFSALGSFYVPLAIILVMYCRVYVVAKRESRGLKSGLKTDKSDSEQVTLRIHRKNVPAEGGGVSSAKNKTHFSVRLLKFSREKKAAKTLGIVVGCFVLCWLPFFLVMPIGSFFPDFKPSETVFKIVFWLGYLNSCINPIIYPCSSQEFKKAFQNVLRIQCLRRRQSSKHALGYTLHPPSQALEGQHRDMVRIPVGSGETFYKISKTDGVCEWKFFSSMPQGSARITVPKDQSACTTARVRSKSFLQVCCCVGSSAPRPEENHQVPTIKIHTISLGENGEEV
As to the kind of experiment: DRUGMATRIX: Alpha-1A adrenergic receptor radioligand binding (ligand: prazosin). The class given is cell membranes, Wistar, Submaxillary gland, Membrane. The following applies: Not Active = under 50% inhibition at 10 µM.

Chain of Sodium-dependent dopamine transporter (Q01959 whole entry): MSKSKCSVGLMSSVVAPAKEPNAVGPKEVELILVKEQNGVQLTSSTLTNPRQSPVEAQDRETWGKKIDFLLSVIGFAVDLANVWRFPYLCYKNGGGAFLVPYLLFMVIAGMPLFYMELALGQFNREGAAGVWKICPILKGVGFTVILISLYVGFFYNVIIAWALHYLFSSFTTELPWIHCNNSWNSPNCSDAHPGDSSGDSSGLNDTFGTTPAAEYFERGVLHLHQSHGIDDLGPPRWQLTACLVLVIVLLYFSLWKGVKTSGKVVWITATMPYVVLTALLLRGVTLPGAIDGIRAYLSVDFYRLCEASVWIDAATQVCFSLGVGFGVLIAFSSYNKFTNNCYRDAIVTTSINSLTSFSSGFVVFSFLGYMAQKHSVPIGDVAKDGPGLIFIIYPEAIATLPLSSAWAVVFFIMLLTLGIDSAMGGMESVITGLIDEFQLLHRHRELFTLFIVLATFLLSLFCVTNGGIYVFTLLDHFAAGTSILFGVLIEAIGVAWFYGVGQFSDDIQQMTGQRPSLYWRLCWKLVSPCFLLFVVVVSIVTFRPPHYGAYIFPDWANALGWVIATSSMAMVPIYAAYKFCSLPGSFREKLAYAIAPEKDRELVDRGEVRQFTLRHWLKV

As for `O=C(Nc1ccc(Br)cc1)c1cc(Br)cc(Br)c1O` [TRIBROMSALAN], the IC50 entry in experiment [1] (cho-k1), in experiment [2], in experiment [3], in experiment [4] and in experiment [5] was “Not Active” in each case. Further, the Ki result in experiment [2] is “Not Active”.

Consider `O=C1Nc2ccc(Cl)cc2C(c2ccccc2Cl)=NC1O` (configuration not stated) [LORAZEPAM], for which the IC50 result in experiment [1] (cho-k1), in experiment [2], in experiment [3], in experiment [4] and in experiment [5] was “Not Active” throughout. In addition, the Ki entry in experiment [2] is reported as “Not Active”.

Take `CC(C)Oc1ccc2c(=O)c(-c3ccccc3)coc2c1` [IPRIFLAVONE]: the IC50 result in experiment [1] (cho-k1), in experiment [2], in experiment [3], in experiment [4] and in experiment [5] was “Not Active” in each case. The Ki entry in experiment [2] is recorded as “Not Active”.

As to `CNC1(c2ccccc2Cl)CCCCC1=O` (configuration not stated) [KETAMINE], the IC50 entry in experiment [1] (cho-k1), in experiment [2], in experiment [3], in experiment [4] and in experiment [5] was “Not Active” throughout. Moreover, the inhibition constant Ki entry in experiment [2] is listed as “Not Active”.

Turning to `O=C(O)c1cn(-c2ccc(F)cc2)c2cc(N3CCNCC3)c(F)cc2c1=O` [SARAFLOXACIN], the half-inhibitory concentration (IC50) entry in experiment [1] (cho-k1), in experiment [2], in experiment [3], in experiment [4] and in experiment [5] was “Not Active” in each case. Besides, the Ki result in experiment [2] is on record as “Not Active”.

Turning to SODIUM ORTHOVANAD, the IC50 entry in experiment [1] (cho-k1), in experiment [2], in experiment [3], in experiment [4] and in experiment [5] was “Not Active” throughout. Also, the Ki entry in experiment [1] (cho-k1), in experiment [2], in experiment [3], in experiment [4] and in experiment [5] was “Not Active” each time.

In the case of `CO[C@@H]1[C@@H](OC)[C@H](C)[C@@](O)(CC(=O)O)O[C@H]1[C@H](C)[C@H]1O[C@@]2(CC[C@@](C)([C@H]3CC[C@@](C)([C@@H]4O[C@@H]([C@H]5O[C@](C)(O)[C@H](C)C[C@@H]5C)C[C@@H]4O[C@@H]4C[C@H](OC)[C@@H](OC)[C@H](C)O4)O3)O2)C[C@H](O)[C@H]1C` [MADURAMICIN ACID], the IC50 result was “Not Active” in experiment [1] (cho-k1); “Not Active” in experiment [2]; “Not Active” in experiment [3]; “Not Active” in experiment [4]; 3.34 µM in experiment [5] (read-out: IC50). Further, the Ki entry in experiment [2] is “Not Active”; in experiment [5] (read-out: Ki), 1.35 µM.

On to `CCN(CC)CC(=O)Nc1c(C)cccc1C` [LIDOCAINE], for which the IC50 entry in experiment [1] (cho-k1), in experiment [2], in experiment [3], in experiment [4] and in experiment [5] was “Not Active” each time. Moreover, in experiment [2], the Ki entry is on record as “Not Active”.

Take `CN(C/C=C/C#CC(C)(C)C)Cc1cccc2ccccc12` [TERBINAFINE]: the IC50 entry in experiment [1] (cho-k1), in experiment [2], in experiment [3], in experiment [4] and in experiment [5] was “Not Active” throughout. Also, the Ki result in experiment [2] was “Not Active”.

`CCCCNc1ccc(C(=O)OCCN(C)C)cc1` [TETRACAINE]: the IC50 result in experiment [1] (cho-k1), in experiment [2], in experiment [3], in experiment [4] and in experiment [5] was “Not Active” throughout. Moreover, the Ki result in experiment [2] is “Not Active”.

As to `Cc1c(C)c2c(c(C)c1O)CCC(C)(CN1CCN(c3cc(N4CCCC4)nc(N4CCCC4)n3)CC1)O2` (configuration not stated), the IC50 in experiment [1] (read-out: IC50) is 13.4 µM; in experiment [2], “Not Active”; in experiment [3], “Not Active”; in experiment [4] it was “Not Active”; in experiment [5] it was “Not Active”. Also, the Ki is 10.6 µM in experiment [1] (read-out: Ki) and “Not Active” in experiment [2].

With `CS(=O)(=O)c1ccc([C@@H](O)[C@@H](CO)NC(=O)C(Cl)Cl)cc1` [THIAMPHENICOL], the IC50 entry in experiment [1] (cho-k1), in experiment [2], in experiment [3], in experiment [4] and in experiment [5] was “Not Active” throughout. In addition, the Ki entry in experiment [2] is reported as “Not Active”.

As for `CC(C)NCC(O)c1ccc(NS(C)(=O)=O)cc1` (configuration not stated) [SOTALOL], the IC50 entry in experiment [1] (cho-k1), in experiment [2], in experiment [3], in experiment [4] and in experiment [5] was “Not Active” in each case. In addition, the Ki entry in experiment [2] was “Not Active”.

On to MANGANESE CHLORIDE ANHYDROUS, for which the IC50 result in experiment [1] (cho-k1), in experiment [2], in experiment [3], in experiment [4] and in experiment [5] was “Not Active” throughout. Further, the Ki entry in experiment [1] (cho-k1), in experiment [2], in experiment [3], in experiment [4] and in experiment [5] was “Not Active” in each case.

Regarding `Nc1cc(N2CCCCC2)nc(N)[n+]1[O-]` [MINOXIDIL], the IC50 result in experiment [1] (cho-k1), in experiment [2], in experiment [3], in experiment [4] and in experiment [5] was “Not Active” each time. For the same molecule, in experiment [2], the Ki result was “Not Active”.

Consider `CO[C@H]1/C=C/O[C@@]2(C)Oc3c(C)c(O)c4c(O)c(c(/C=N/N5CCN(C6CCCC6)CC5)c(O)c4c3C2=O)NC(=O)/C(C)=C\C=C\[C@H](C)[C@H](O)[C@@H](C)[C@@H](O)[C@@H](C)[C@H](OC(C)=O)[C@@H]1C` [RIFAPENTINE], for which the IC50 entry in experiment [1] (cho-k1), in experiment [2], in experiment [3], in experiment [4] and in experiment [5] was “Not Active” each time. In addition, the Ki result in experiment [2] is given as “Not Active”.

Regarding `COc1c2occc2cc2ccc(=O)oc12` [METHOXSALEN], the IC50 entry in experiment [1] (cho-k1), in experiment [2], in experiment [3], in experiment [4] and in experiment [5] was “Not Active” each time. Moreover, the inhibitory constant (Ki) result in experiment [2] was “Not Active”.

As a reminder, the IC50 is the concentration that inhibits the measured activity by half. For orientation: Ki means the dissociation constant of the complex between target and ligand, obtained from inhibition or displacement.
